Drawing on ChEMBL document CHEMBL4373636, “Synthesis of endolides A and B: naturally occurring N-methylated cyclic tetrapeptides” (Medchemcomm, 2019), this text covers Ki for two compounds.

One assay has as its target Vasopressin V1a receptor (Homo sapiens, UniProt P37288). Description: Binding affinity to vasopressin 1A receptor (unknown origin).
Assay [1] has as its target 5-hydroxytryptamine receptor 2B (Homo sapiens, UniProt P41595). Nature of the assay: Binding affinity to 5HT2b (unknown origin).

Sequence of Vasopressin V1a receptor (P37288 whole entry): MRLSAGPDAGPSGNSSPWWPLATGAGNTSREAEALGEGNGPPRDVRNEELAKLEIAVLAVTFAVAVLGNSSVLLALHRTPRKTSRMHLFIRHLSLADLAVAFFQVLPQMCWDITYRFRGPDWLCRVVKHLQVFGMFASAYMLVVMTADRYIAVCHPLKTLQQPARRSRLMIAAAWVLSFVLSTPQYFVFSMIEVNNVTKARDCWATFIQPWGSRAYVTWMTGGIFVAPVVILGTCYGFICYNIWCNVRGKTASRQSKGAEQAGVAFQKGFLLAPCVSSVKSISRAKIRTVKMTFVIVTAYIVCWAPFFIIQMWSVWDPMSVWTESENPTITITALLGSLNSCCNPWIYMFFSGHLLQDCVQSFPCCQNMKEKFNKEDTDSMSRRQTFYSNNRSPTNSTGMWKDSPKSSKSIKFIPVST
Sequence of 5-hydroxytryptamine receptor 2B (P41595 whole entry): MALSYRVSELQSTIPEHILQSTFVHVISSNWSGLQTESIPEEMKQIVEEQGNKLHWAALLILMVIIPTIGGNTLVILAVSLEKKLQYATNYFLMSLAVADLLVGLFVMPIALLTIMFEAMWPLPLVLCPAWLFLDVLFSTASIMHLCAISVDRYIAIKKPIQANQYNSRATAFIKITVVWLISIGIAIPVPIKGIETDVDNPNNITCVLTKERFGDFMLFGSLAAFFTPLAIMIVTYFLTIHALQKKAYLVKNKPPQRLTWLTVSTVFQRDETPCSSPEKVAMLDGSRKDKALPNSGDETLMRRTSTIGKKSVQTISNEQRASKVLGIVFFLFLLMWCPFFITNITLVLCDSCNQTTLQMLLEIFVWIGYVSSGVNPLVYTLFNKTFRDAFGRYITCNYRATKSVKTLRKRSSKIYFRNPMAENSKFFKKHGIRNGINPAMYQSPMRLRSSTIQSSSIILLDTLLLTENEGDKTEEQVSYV

As for `CC(C)C[C@@H]1NC(=O)[C@H](Cc2ccoc2)N(C)C(=O)[C@H](C(C)C)NC(=O)[C@H](Cc2ccoc2)N(C)C1=O`, the affinity on Vasopressin V1a receptor, expressed as Ki, was 7.04 µM.
`CC(C)[C@@H]1NC(=O)[C@H](Cc2ccoc2)N(C)C(=O)[C@H](Cc2ccoc2)NC(=O)[C@H](Cc2ccoc2)N(C)C1=O`: the affinity in assay [1], expressed as Ki, was 770 nM. This lies in the sub-micromolar range.
